Test results taken from PubChem BioAssay (NCI).
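The compound was tested at five concentrations on cells cultured in 96-well plates, with a 48-hour exposure period. GI50 marks 50% less growth. TGI: total growth inhibition.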 Where a SMILES comes first, the peptide text is derived from it. The star is where a group is joined. Trt = c1ccc(C(c2ccccc2)(c2ccccc2)*)cc1; Cbz = O=C(OCc1ccccc1)*

Assays:
Test in all cases: NCI tumour cell line growth inhibition, 48 h
LOX IMVI melanoma = tested on: LOX IMVI melanoma
SR leukemia = tested on: SR leukemia
CCRF-CEM leukemia = tested on: CCRF-CEM leukemia
M14 melanoma = tested on: M14 melanoma
OVCAR-3 ovarian = tested on: OVCAR-3 ovarian
SK-OV-3 ovarian = tested on: SK-OV-3 ovarian
UACC-62 melanoma = tested on: UACC-62 melanoma
MDA-MB-231 breast = tested on: MDA-MB-231 breast
MCF7 breast = tested on: MCF7 breast
HS 578T breast = tested on: HS 578T breast

Structure (SMILES) | TGI (LOX IMVI melanoma) | TGI (SR leukemia) | TGI (CCRF-CEM leukemia) | TGI (M14 melanoma) | TGI (OVCAR-3 ovarian) | TGI (SK-OV-3 ovarian) | TGI (UACC-62 melanoma) | TGI (MDA-MB-231 breast) | TGI (MCF7 breast) | TGI (HS 578T breast) | GI50 (LOX IMVI melanoma) | GI50 (M14 melanoma) | GI50 (OVCAR-3 ovarian) | GI50 (SK-OV-3 ovarian) | GI50 (UACC-62 melanoma) | GI50 (MDA-MB-231 breast) | GI50 (MCF7 breast) | GI50 (CCRF-CEM leukemia) | GI50 (HS 578T breast)
CCOC(=O)CC(NC(=O)c1ccc(N=NN(C)C)cc1)C(=O)OCC (stereo not given) | > 100 µM | > 100 µM | > 100 µM | > 100 µM | > 100 µM | > 100 µM | > 100 µM |  |  |  |  |  |  |  |  |  |  |  | 
CCCCCCCCCCCCCCCCCC(=O)NCC(COP(=O)(O)O)OCC (stereo not given) |  | > 100 µM | > 100 µM | > 100 µM | > 100 µM | > 100 µM | > 100 µM |  |  |  |  |  |  |  |  |  |  |  | 
COC(=O)C(=O)C(C(=O)C(=O)Nc1cc(Cl)c(Cl)cc1Cl)c1nc2ccc([N+](=O)[O-])cc2[nH]c1=O (stereo not given) | > 100 µM | > 100 µM | > 100 µM | > 100 µM |  | > 100 µM | > 100 µM |  |  |  |  |  |  |  |  |  |  |  | 
Cc1ccccc1NC(=O)Cc1csc(N=Nc2c(O)[nH]c3ccccc23)n1 | > 100 µM |  | > 100 µM | > 100 µM |  |  | > 100 µM | > 100 µM | > 100 µM | 84.9 µM |  |  |  |  |  |  |  |  | 
CC(=O)[C-](C(C)=O)c1ccccc1.CC(=O)[C-](C(C)=O)c1ccccc1.CC(=O)[C-](C(C)=O)c1ccccc1.[Cl-].[Zr+4] | > 100 µM |  |  | > 100 µM | > 100 µM | > 100 µM | > 100 µM |  |  |  | > 100 µM | > 100 µM | > 100 µM | > 100 µM | > 100 µM |  |  |  | 
CC(C)N1C(C)[C@@H](c2ccccc2)O[P@]1(=O)CC1=CCCCC1 (stereo not given in full) | > 100 µM | > 100 µM | > 100 µM | > 100 µM | > 100 µM | > 100 µM | > 100 µM |  |  |  |  |  |  |  |  |  |  |  | 
COc1cc(C(C#N)NNc2nc(C)cc(=O)[nH]2)cc(OC)c1OC (stereo not given) | > 100 µM | > 100 µM | > 100 µM | > 100 µM | > 100 µM | > 100 µM | > 100 µM |  |  |  |  |  |  |  |  |  |  |  | 
CC(C)(C)Sc1nnc(SC(C)(C)C)c2c(=O)[nH]nc(SC(C)(C)C)c12 | 24.2 µM | 19.1 µM | 28.1 µM | 28.9 µM | 22.6 µM | 32.5 µM | 22.2 µM |  |  |  |  |  |  |  |  |  |  |  | 
Cc1noc(/N=C2\C=C(Nc3onc(C)c3C)C(=O)c3ccccc32)c1C | > 100 µM | > 100 µM | > 100 µM | > 100 µM | 83 µM | > 100 µM | > 100 µM |  |  |  |  |  |  |  |  |  |  |  | 
c1ccc(-c2nnc3nn4c(-c5ccccc5)cnnc4c3c2-c2ccccc2)cc1 | > 100 µM | > 100 µM | > 100 µM | > 100 µM | > 100 µM |  | > 100 µM |  |  |  |  |  |  |  |  |  |  |  | 
O=S1(=O)c2ccccc2N=C(c2ccccc2Cl)CC1c1ccc(F)cc1 (stereo not given) | 34.2 µM |  | 50.5 µM | 35.3 µM | 27.4 µM | 89 µM | 32 µM |  |  |  |  |  |  |  |  |  |  |  | 
Cc1ccc2nc(NC(=O)C(=O)CC(=O)c3cccc4ccccc34)sc2c1 | > 100 µM |  | > 100 µM | 44.2 µM | 49.6 µM | 36.6 µM | 86.8 µM |  |  |  |  |  |  |  |  |  |  |  | 
CCCCNC1=C(C(=O)OCC)/C(=N/NC(=O)c2ccccc2O)CO1 | > 100 µM |  | > 100 µM | > 100 µM | > 100 µM | > 100 µM | > 100 µM |  |  |  |  |  |  |  |  |  |  |  | 
O=C1C=C(N2CCN(CCOCCO)CC2)C(=O)c2c(O)ccc(O)c21 | 6.62 µM |  | 14.8 µM | 3.1 µM | 5.35 µM | 38.8 µM | 4.1 µM | 21.8 µM | 2.98 µM | 45.3 µM |  |  |  |  |  |  |  |  | 
O=C1CCC(=O)c2sccc2N1 | > 100 µM |  | > 100 µM | > 100 µM | > 100 µM | > 100 µM |  |  |  |  |  |  |  |  |  |  |  |  | 
O=CCCCC(Sc1ccccc1)Sc1ccccc1 | 26.6 µM | 48.3 µM | 44.6 µM | 51.3 µM | 68 µM | 59.4 µM | 24.5 µM |  |  |  |  |  |  |  |  |  |  |  | 
COC(=O)C(CSC(c1ccccc1)(c1ccccc1)c1ccccc1)NC(=O)C(CC(N)=O)NC(=O)OCc1ccccc1 (stereo not drawn) (Cbz-Asn-Cys(Trt)-OMe; configuration not given here) | 3.51 µM |  | 19.7 µM | 3.69 µM | 4.67 µM | 10.2 µM | 14.1 µM | 10.9 µM | 27.4 µM | 26.5 µM | 1.83 µM | 1.68 µM | 1.78 µM | 2.42 µM | 3.15 µM | 2.93 µM | 4.54 µM | 3.33 µM | 4.55 µM
COc1cccc2c1cc1c3c(cc4c(c32)OCO4)C(=O)N1 | 23.3 µM |  | > 100 µM | > 100 µM | 5.58 µM | 48.9 µM | > 100 µM | 47.2 µM | 11.1 µM | 6.82 µM | 4.27 µM | 12.1 µM | 2.5 µM | 13.6 µM | 4.65 µM | 7.9 µM | 2.96 µM | 5.15 µM | 2.33 µM
